Results reported in patent US11753407B2, “Compounds for treating spinal muscular atrophy” (PTC Therapeutics, Inc., priority 2012, dated 2023).

Columns and labels:
[1] = system: Smn protein in SMA patient fibroblast cells (GM03813); assay: Smn protein assay in cultured cells (SMN HTRF); assay type: cell-based, human; settings: SMA patient fibroblast cells, 48 hours; for EC1.5x for Smn protein expression: 7-point concentration curve, SMN HTRF, concentration producing 1.5 times Smn protein vs DMSO vehicle control; for maximum fold (Fold) increase of Smn protein: 7-point concentration data, fold relative to vehicle control
In short: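 SMA patient fibroblasts (5,000 cells/well, DMEM-10% FBS) were treated for 48 h at 37 °C with a 7-point, 3.16-fold dilution series in triplicate. RIPA lysates were probed by HTRF (anti-SMN d2/kryptate, overnight, room temperature), reading 665/620 nm. EC1.5× is the concentration giving 1.5-fold Smn over DMSO vehicle.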

[2] = system: SMN2 minigene mRNA (SMN2-A minigene) in HEK293H cells; assay: SMN2 minigene mRNA splicing RT-qPCR assay in cultured cells; assay type: cell-based, human; settings: Homo sapiens, HEK293-H; concentration increasing full length SMN2 mRNA 1.5-fold relative to vehicle-treated cells; HEK293H cells with SMN2-A minigene, 24 hours, 7-point concentration data; read-out: EC1.5x for production of full length SMN2 mRNA
In short: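 HEK293H cells stably carrying the SMN2-A minigene were treated for 24 h at 37 °C with a 7-point, 3.16-fold dilution series of compound. Multiplex RT-qPCR measured exon 7-containing minigene FL mRNA against GAPDH, expressed relative to vehicle by modified ΔΔCt; the EC1.5× is the concentration giving a 1.5-fold increase.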

Row | SMILES | EC1.5x for Smn protein expression [1] | maximum fold (Fold) increase of Smn protein [1] | melting point | EC (1.5-fold increase) [2]
1 | Cc1cn2nc(-c3cc(=O)n4nc(C5CCN(C)CC5)ccc4n3)cc2c(C)n1 [Compound 513, 2-(4,6-dimethylpyrazolo[1,5-a]pyrazin-2-yl)-7-(1-methylpiperidin-4-yl)-4H-pyrimido[1,2-b]pyridazin-4-one] | **** (an EC1.5x≤0.3 μM is indicated by four stars (****)) | ***** (a fold increase >1.65 is indicated by five stars (*****)) | 265 to 267 °C | 0.1 to 0.3 µM
2 | CCN1CCC(c2ccc3nc(-c4cc5c(C)nc(C)cn5n4)cc(=O)n3n2)CC1 [Compound 514, 2-(4,6-dimethylpyrazolo[1,5-a]pyrazin-2-yl)-7-(1-ethylpiperidin-4-yl)-4H-pyrimido[1,2-b]pyridazin-4-one] | ** (an EC1.5× between >1 μM and ≤3 μM is indicated by two stars (**)) | ***** (a fold increase >1.65 is indicated by five stars (*****)) | 283 to 285 °C | 0.1 to 0.3 µM
3 | Cc1cn2nc(-c3cc(=O)n4cc(N5CCC6NCCC6C5)ccc4n3)cc2c(C)n1 (centres unmarked) [Compound 515, 2-(4,6-dimethylpyrazolo[1,5-a]pyrazin-2-yl)-7-(octahydro-5H-pyrrolo[3,2-c]pyridin-5-yl)-4H-pyrido[1,2-a]pyrimidin-4-one] | **** (an EC1.5x≤0.3 μM is indicated by four stars (****)) | ***** (a fold increase >1.65 is indicated by five stars (*****)) | 198 to 200 °C | < 0.1 µM
4 | Cc1cn2cc(-c3cc(=O)n4cc(C5CCNCC5)ccc4n3)cc(Cl)c2n1 [Compound 516, 2-(8-chloro-2-methylimidazo[1,2-a]pyridin-6-yl)-7-(piperidin-4-yl)-4H-pyrido[1,2-a]pyrimidin-4-one] | **** (an EC1.5x≤0.3 μM is indicated by four stars (****)) | **** (a fold increase between >1.5 and ≤1.65 is indicated by four stars (****)) | 287 to 293 °C | < 0.1 µM
5 | Cc1cn2cc(-c3cc(=O)n4cc(C5CCN(C)CC5)ccc4n3)cc(Cl)c2n1 [Compound 517, 2-(8-chloro-2-methylimidazo[1,2-a]pyridin-6-yl)-7-(1-methylpiperidin-4-yl)-4H-pyrido[1,2-a]pyrimidin-4-one] | **** (an EC1.5x≤0.3 μM is indicated by four stars (****)) | ***** (a fold increase >1.65 is indicated by five stars (*****)) | 292 to 296 °C | < 0.1 µM
6 | CCN1CCC(c2ccc3nc(-c4cc(Cl)c5nc(C)cn5c4)cc(=O)n3c2)CC1 [Compound 518, 2-(8-chloro-2-methylimidazo[1,2-a]pyridin-6-yl)-7-(1-ethylpiperidin-4-yl)-4H-pyrido[1,2-a]pyrimidin-4-one] | **** (an EC1.5x≤0.3 μM is indicated by four stars (****)) | **** (a fold increase between >1.5 and ≤1.65 is indicated by four stars (****)) | 240 to 246 °C | < 0.1 µM
7 | Cc1cn2cc(-c3cc(=O)n4cc(C5CCN(C(C)C)CC5)ccc4n3)cc(Cl)c2n1 [Compound 519, 2-(8-chloro-2-methylimidazo[1,2-a]pyridin-6-yl)-7-[1-(propan-2-yl)piperidin-4-yl]-4H-pyrido[1,2-a]pyrimidin-4-one] | **** (an EC1.5x≤0.3 μM is indicated by four stars (****)) | ***** (a fold increase >1.65 is indicated by five stars (*****)) | 279 to 285 °C | < 0.1 µM
8 | CN1CCC(c2ccc3nc(-c4ccc5nn(C)cc5c4)cc(=O)n3n2)CC1 [Compound 522, 2-(2-methyl-2H-indazol-5-yl)-7-(1-methylpiperidin-4-yl)-4H-pyrimido[1,2-b]pyridazin-4-one] | *** (an EC1.5× between >0.3 μM and ≤1 μM is indicated by three stars (***)) | ***** (a fold increase >1.65 is indicated by five stars (*****)) | 260 to 262 °C | < 0.1 µM
9 | CCN1CCC(c2ccc3nc(-c4ccc5nn(C)cc5c4)cc(=O)n3n2)CC1 [Compound 523, 7-(1-ethylpiperidin-4-yl)-2-(2-methyl-2H-indazol-5-yl)-4H-pyrimido[1,2-b]pyridazin-4-one] | **** (an EC1.5x≤0.3 μM is indicated by four stars (****)) | ***** (a fold increase >1.65 is indicated by five stars (*****)) | 253 to 255 °C | < 0.1 µM
10 | Cc1cn2cc(-c3cc(=O)n4nc(C5CCN(C)CC5)ccc4n3)cc(Cl)c2n1 [Compound 524, 2-(8-chloro-2-methylimidazo[1,2-a]pyridin-6-yl)-7-(1-methylpiperidin-4-yl)-4H-pyrimido[1,2-b]pyridazin-4-one] | *** (an EC1.5× between >0.3 μM and ≤1 μM is indicated by three stars (***)) | ***** (a fold increase >1.65 is indicated by five stars (*****)) | 289 to 291 °C | 0.1 to 0.3 µM
11 | CCN1CCC(c2ccc3nc(-c4cc(Cl)c5nc(C)cn5c4)cc(=O)n3n2)CC1 [Compound 525, 2-(8-chloro-2-methylimidazo[1,2-a]pyridin-6-yl)-7-(1-ethylpiperidin-4-yl)-4H-pyrimido[1,2-b]pyridazin-4-one] | *** (an EC1.5× between >0.3 μM and ≤1 μM is indicated by three stars (***)) | ***** (a fold increase >1.65 is indicated by five stars (*****)) | 284 to 286 °C | 0.1 to 0.3 µM
12 | Cc1cn2cc(-c3cc(=O)n4nc(C5CCN(CCO)CC5)ccc4n3)cc(Cl)c2n1 [Compound 526, 2-(8-chloro-2-methylimidazo[1,2-a]pyridin-6-yl)-7-[1-(2-hydroxyethyl)piperidin-4-yl]-4H-pyrimido[1,2-b]pyridazin-4-one] | ** (an EC1.5× between >1 μM and ≤3 μM is indicated by two stars (**)) | ***** (a fold increase >1.65 is indicated by five stars (*****)) | 255 to 257 °C | 0.3 to 1 µM
13 | Cc1cc2cc(-c3cc(=O)n4cc(N5C[C@@H](C)N[C@@H](C)C5)ccc4n3)oc2c(C)n1 [Compound 527, 2-(5,7-dimethylfuro[2,3-c]pyridin-2-yl)-7-[(3R,5S)-3,5-dimethylpiperazin-1-yl]-4H-pyrido[1,2-a]pyrimidin-4-one] | **** (an EC1.5x≤0.3 μM is indicated by four stars (****)) | ***** (a fold increase >1.65 is indicated by five stars (*****)) | 260 to 262 °C | < 0.1 µM
14 | Cc1cc2cc(-c3cc(=O)n4cc(N5CCC(N(C)C)CC5)ccc4n3)oc2c(C)n1 [Compound 528, 7-[4-(dimethylamino)piperidin-1-yl]-2-(5,7-dimethylfuro[2,3-c]pyridin-2-yl)-4H-pyrido[1,2-a]pyrimidin-4-one] | **** (an EC1.5x≤0.3 μM is indicated by four stars (****)) | **** (a fold increase between >1.5 and ≤1.65 is indicated by four stars (****)) | 200 to 202 °C | < 0.1 µM
